Experiments:
[1] = test system: C57BL/6cnc mice; experiment: Synergistic effect of Example 7 with other NASH compounds in mouse model; format: in vivo; conditions: NASH mice, single agents, 2-week treatment
Description: There are other candidates being developped for inflammation, metabolism syndromes or NASH These include glucagon-like peptide-1 (GLP-1) receptor agonist liraglutide, peroxisome proliferator-activated receptor-α and -β (PPAR-α/δ) agonist elafibranor, and nuclear erythroid 2-related factor 2 (NRF2) activator bardoxolone methyl (CDDO-Me). These candidates target different proteins and pathways, therefore have different mechanisms of action related to steatosis, inflammation, and fibrosis.
C57BL/6cnc mice were fed with high-fat diet containing 60 kacl % fat and 0.10% methionine (no added choline) (Research Diets, A06071302) for 12 weeks to induce NASH model. After 12-week diet induction, the mice had increased plasma levels of TC, LDL-c, ALT, and fibrosis markers. […] An Example 7 alone group and a vehicle group were also set up for controls. […] After 2-week treatment, serum biochemistry was measured; liver was collected to measure liver TC and TG. Livers were punched in 2 mm diameter and fixed, sectioned and stained with Sirius Red, and the fibrosis and steatosis were scored.

[2] = biological target: T1, THRβ-LBD (Homo sapiens, UniProt P10828); experiment: THR coactivator recruitment assay (LanthaScreen TR-FRET), THRβ; conditions: for THRβ Bmax % (vs T3): maximum activity relative to the maximum activity of 500 nM T3
T1 sequence (P10828 217-461 limits assumed): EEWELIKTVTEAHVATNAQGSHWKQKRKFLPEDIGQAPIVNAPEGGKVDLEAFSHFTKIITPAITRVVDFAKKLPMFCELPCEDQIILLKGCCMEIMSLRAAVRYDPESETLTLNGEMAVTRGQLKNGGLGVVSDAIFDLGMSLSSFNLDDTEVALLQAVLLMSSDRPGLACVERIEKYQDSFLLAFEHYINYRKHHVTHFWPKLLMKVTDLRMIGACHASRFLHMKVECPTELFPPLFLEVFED
Description: (§3) The coactivator recruitment assay was performed using LanthaScreen™ TR-FRET TR coactivator assay kit (ThermoFisher). […] THRβ-LBD (ligand binding domain) or THRα-LBD was added to test compounds at a final concentration of 2.5 nM followed by addition of a mixture of the fluorescein-coactivator peptide and terbium-conjugated anti-GST antibody. The diluted test compounds were mixed with the same volume of other reagents (10 μl:10 μl). After 2-hour incubation period at room temperature, the plate was read at wavelengths of 520 nm and 495 nm using Envison plate reader (PerkinElmer). […] In addition, the selectivity for each compound was normalized for the selectivity of T3 run in the same assay.

[3] = biological target: T2, THRα-LBD (Homo sapiens, UniProt P10827); experiment: THR coactivator recruitment assay (LanthaScreen TR-FRET), THRα; format: biochemical; conditions: for EC50: EC50 class from TR-FRET ratio 520:495 dose response, read-out: THRα binding; for THRα Bmax % (vs T3): maximum activity relative to the maximum activity of 500 nM T3
T2 construct: purchased ThermoFisher
T2 sequence (P10827 163-410 isoform P10827-2 limits assumed, other chains not shown): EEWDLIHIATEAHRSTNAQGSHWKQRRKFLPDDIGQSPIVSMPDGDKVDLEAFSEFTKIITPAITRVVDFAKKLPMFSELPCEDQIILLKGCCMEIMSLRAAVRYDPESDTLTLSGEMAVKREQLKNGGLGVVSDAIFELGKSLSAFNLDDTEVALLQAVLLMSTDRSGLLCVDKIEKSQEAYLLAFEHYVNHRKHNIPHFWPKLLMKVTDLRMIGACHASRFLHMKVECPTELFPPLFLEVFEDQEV
Description: The coactivator recruitment assay was performed using LanthaScreen™ TR-FRET TR coactivator assay kit (ThermoFisher). […] The diluted test compounds were mixed with the same volume of other reagents (10 μl:10 μl). […] In addition, the selectivity for each compound was normalized for the selectivity of T3 run in the same assay.

[4] = biological target: T1, THRβ-LBD
Description: as §3

[5] = test system: α-MHC; experiment: Heart safety evaluation in hypothyroid rat: cardiac α-MHC expression; format: in vivo; conditions: intraperitoneal, 37.5 mg/kg (T3 0.1 mg/kg), heart tissue after 6 hours
Description: (§1) SD Rats underwent thyroidectomy and recovered for 10 days. T3 and T4 were tested to confirm the complete thyroidectomy. […] Note that the dose for these compounds was […] higher than their therapeutic dose (1 mg/kg by oral gavage) in mouse models. For comparison, thyroid hormone T3 was also tested at 0.1 mg/kg with intraperitoneal injection. […] After 6 hours, the heart tissues were collected to quantitate the expression of α-MHC, a thyroid hormone responsive and THRα-target gene in heart.

[6] = test system: Thyroidectomized rats; experiment: Heart safety evaluation in hypothyroid rat: heart rate; format: in vivo; conditions: 0.1 mg/kg intraperitoneal injection, first 30 minutes
Description: as §1

[7] = biological target: T3, CYP 2C19 (Homo sapiens, UniProt P33261); experiment: CYP inhibition in human liver microsome, 2C19; format: in vitro ADME; conditions: human liver microsomes, substrate s-mephenytoin, top 50 μM; read-out: CYP450 inhibition IC50 2C19
T3 construct: from tissue; host or cells: human liver microsomes
T3 sequence (P33261 whole entry): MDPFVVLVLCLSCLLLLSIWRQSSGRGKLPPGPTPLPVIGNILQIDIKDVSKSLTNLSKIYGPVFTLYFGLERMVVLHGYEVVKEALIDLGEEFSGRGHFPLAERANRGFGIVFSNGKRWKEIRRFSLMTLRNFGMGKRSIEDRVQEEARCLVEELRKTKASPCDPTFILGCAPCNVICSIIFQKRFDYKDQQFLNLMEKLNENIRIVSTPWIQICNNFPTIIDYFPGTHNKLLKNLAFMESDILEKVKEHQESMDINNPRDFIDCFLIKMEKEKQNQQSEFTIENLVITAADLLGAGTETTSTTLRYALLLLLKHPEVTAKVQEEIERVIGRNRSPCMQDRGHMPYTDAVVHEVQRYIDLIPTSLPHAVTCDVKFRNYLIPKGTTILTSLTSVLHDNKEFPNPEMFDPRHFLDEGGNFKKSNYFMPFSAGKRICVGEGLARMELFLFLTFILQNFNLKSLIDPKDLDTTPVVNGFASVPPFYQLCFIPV
Description: (§2) Test compounds were evaluated for CYP inhibition using human liver microsomes (HLM). Test compounds were 1:3 serially diluted starting at 50 μM to generate 7 different concentrations. After incubation of diluted test compounds with HLM, a substrate cocktail composed of phenacetin (10 uM), amodiaquine (2 uM), diclofenac (5 uM), s-mephenytoin (30 uM), dextromethorphan (5 uM), and midazolam (2 uM) was added to check the remaining CYP activity for CYP 1A2, 2C8, 2C9, 2C19, 2D6 and 3A4. The CYP activity was measured by detecting the peak area of individual metabolites of know CYP substrates using LC/MS/MS. A percentage of inhibition of CYP was calculated at each final concentration of test compound, through which an IC50 was fitted to represent the inhibition potential.

[8] = biological target: T4, CYP 1A2 (Homo sapiens, UniProt P05177); experiment: CYP inhibition in human liver microsome, 1A2; format: in vitro ADME; conditions: human liver microsomes, substrate phenacetin, top 50 μM; read-out: CYP450 inhibition IC50 1A2
T4 construct: from tissue; host or cells: human liver microsomes
T4 sequence (P05177 1-516): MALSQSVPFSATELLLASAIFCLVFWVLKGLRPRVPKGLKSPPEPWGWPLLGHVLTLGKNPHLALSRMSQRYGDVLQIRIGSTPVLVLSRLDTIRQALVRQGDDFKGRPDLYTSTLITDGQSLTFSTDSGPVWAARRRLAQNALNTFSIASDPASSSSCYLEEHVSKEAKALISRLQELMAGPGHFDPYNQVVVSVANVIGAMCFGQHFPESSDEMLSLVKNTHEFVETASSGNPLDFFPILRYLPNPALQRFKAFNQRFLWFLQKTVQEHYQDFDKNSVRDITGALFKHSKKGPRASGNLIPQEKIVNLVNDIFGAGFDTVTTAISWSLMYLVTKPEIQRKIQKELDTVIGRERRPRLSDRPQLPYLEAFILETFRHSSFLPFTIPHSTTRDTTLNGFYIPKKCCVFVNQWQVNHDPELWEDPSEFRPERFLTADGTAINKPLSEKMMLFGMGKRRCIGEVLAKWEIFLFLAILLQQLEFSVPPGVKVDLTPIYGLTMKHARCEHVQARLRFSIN
Description: as §2

[9] = biological target: T5, CYP 2D6 (Homo sapiens, UniProt P10635); experiment: CYP inhibition in human liver microsome, 2D6; format: in vitro ADME; conditions: human liver microsomes, substrate dextromethorphan, top 50 μM; read-out: CYP450 inhibition IC50 2D6
T5 construct: from tissue; host or cells: human liver microsomes
T5 sequence (P10635 whole entry): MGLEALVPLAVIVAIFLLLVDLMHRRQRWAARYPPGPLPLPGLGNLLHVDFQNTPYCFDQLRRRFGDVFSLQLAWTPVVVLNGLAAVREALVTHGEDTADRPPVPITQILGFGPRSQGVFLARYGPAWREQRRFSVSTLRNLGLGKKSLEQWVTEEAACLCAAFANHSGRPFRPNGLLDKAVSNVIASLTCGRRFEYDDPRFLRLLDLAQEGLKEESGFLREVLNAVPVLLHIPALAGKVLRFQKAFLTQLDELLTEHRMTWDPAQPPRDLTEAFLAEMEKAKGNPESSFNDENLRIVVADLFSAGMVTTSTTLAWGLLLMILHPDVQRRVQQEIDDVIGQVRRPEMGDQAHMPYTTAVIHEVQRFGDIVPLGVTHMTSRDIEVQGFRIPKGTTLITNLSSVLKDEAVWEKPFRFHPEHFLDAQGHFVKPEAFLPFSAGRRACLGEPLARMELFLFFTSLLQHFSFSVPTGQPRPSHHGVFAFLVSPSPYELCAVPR
Description: as §2

[10] = biological target: T6, CYP 3A4 (Homo sapiens, UniProt P08684); experiment: CYP inhibition in human liver microsome, 3A4; format: in vitro ADME; conditions: human liver microsomes, substrate midazolam, top 50 μM; read-out: CYP450 inhibition IC50 3A4
T6 construct: from tissue; host or cells: human liver microsomes
T6 sequence (P08684 whole entry): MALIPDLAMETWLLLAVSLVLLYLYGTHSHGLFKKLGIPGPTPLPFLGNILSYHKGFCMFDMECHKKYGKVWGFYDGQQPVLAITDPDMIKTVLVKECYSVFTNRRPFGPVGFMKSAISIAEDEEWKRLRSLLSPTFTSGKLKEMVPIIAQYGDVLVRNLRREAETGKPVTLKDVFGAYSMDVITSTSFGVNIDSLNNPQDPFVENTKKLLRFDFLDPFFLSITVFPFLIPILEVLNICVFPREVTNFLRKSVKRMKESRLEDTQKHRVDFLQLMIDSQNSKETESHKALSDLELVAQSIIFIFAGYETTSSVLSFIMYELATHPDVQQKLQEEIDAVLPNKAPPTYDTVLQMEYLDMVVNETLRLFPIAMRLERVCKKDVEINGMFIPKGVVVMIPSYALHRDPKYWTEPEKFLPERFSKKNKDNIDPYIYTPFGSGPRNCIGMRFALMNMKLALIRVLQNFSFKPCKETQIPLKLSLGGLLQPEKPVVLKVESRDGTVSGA
Description: as §2

[11] = test system: C57BL/6cnc mice; experiment: Cholesterol-lowering efficacy in trans-fat AMLN diet-induced hypercholesterolemia mouse model; format: in vivo; conditions: AMLN diet mice, daily oral gavage 2 weeks, 0.3-3 mg/kg (Example 7) or 1 and 3 mg/kg
Description: C57BL/6cnc mice were fed with AMVLN diet containing 40 Kcal % Fat, 20 Kcal % Fructose and 2% Cholesterol (Research Diets, D09100301) for 5 weeks to induce hypercholesterolemia. The cholesterol lowering efficacy of compounds disclosed herein were tested in two separate studies. […] Thyroid hormone T3 (0.1 mg/kg, intraperitoneal injection) was evaluated as a positive control in both studies. The treatment lasted two weeks with daily oral gavage. Blood samples were taken before the dosing on the first day and again at the end of study for detection of plasma cholesterol (TC), triglycerides (TG) and LDL-c. […] At the end of study, the liver tissues were taken for measuring the hepatic TC and TG levels. The compound concentration was quantified in blood, liver and heart.

[12] = test system: C57BL/6cnc mice; experiment: Cholesterol-lowering efficacy in high cholesterol diet-induced hypercholesterolemia mouse model; format: in vivo
Description: To further confirm the PD effects of compounds, another diet induced NAFLD mouse model was used. C57BL/6cnc mice were fed with the diet containing 1.5% cholesterol and 0.5% cholic acid (Research Diets, D12109C) for 2 weeks prior to the initiation of treatment. The cholesterol lowering efficacy of compounds disclosed herein was tested in two separate studies. […] Thyroid hormone T3 (0.1 mg/kg, intraperitoneal injection) was evaluated as a positive control in the second study. The treatment lasted two weeks with daily oral gavage. Blood samples were taken at the end of study for plasma cholesterol and LDL-c detection. At the end of study, the liver tissues were taken for measurement of the hepatic cholesterol levels. DIO1 is a THRβ target gene in liver, and its mRNA level reflects the activity of THRO. Therefore, the expression of DIO1 was also quantitated in liver tissue by qPCR to examine the target engagement by these compounds. The compound concentration was quantified in blood, liver and heart.

[13] = biological target: T7, CYP 2C9 (Homo sapiens, UniProt P11712); experiment: CYP inhibition in human liver microsome, 2C9; format: in vitro ADME; conditions: human liver microsomes, substrate diclofenac, top 50 μM; read-out: CYP450 inhibition IC50 2C9
T7 construct: from tissue; host or cells: human liver microsomes
T7 sequence (P11712 whole entry): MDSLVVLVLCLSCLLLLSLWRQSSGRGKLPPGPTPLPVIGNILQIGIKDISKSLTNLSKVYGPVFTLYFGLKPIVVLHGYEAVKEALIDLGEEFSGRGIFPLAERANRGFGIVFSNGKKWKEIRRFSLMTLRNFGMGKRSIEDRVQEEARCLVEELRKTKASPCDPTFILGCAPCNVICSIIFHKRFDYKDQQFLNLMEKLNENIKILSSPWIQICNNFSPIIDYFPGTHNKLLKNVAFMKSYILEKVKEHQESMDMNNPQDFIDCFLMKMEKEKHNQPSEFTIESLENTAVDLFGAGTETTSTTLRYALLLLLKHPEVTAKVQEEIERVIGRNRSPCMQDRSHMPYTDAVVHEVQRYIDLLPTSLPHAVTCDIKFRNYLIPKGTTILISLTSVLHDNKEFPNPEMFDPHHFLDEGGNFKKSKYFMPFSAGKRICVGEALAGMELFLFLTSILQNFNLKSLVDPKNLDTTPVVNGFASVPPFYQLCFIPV
Description: as §2

[14] = biological target: T8, CYP 2C8 (Homo sapiens, UniProt P10632); experiment: CYP inhibition in human liver microsome, 2C8; format: in vitro ADME; conditions: human liver microsomes, substrate amodiaquine, top 50 μM; read-out: CYP450 inhibition IC50 2C8
T8 construct: from tissue; host or cells: human liver microsomes
T8 sequence (P10632 1-490): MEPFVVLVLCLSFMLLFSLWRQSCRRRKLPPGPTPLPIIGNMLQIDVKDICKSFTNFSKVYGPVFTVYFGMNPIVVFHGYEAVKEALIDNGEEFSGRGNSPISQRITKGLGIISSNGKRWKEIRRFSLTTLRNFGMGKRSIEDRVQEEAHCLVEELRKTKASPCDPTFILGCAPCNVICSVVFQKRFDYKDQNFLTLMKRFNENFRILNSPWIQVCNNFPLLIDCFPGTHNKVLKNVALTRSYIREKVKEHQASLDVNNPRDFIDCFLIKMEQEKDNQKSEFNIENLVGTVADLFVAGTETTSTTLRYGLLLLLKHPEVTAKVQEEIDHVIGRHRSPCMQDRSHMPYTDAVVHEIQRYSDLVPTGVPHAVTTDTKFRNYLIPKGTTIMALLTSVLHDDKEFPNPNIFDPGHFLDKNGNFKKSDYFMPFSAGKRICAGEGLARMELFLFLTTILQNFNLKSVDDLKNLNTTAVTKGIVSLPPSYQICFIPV
Description: as §2

[15] = high cholesterol diet mice, 0.3, 1, 3 mg/kg daily oral gavage, 2-week treatment

Row | SMILES | EC50 [2] [nM] | THRβ Bmax % (vs T3) [2] [%] | EC50 [3] [nM] | THRα Bmax % (vs T3) [3] [%] | selectivity ratio [4] | also measured
1 | CSc1ccc(C(=O)/C=C/c2cc(C)c(OC(C)(C)C(=O)O)c(C)c2)cc1 [Elafibranor, reference compound] | – | – | – | – | – | liver weight, liver TC, liver TG, plasma TC, LDL-c, ALT, fibrosis, steatosis [1]: reduced all or some of these parameters
2 | N[C@@H](Cc1cc(I)c(Oc2ccc(O)c(I)c2)c(I)c1)C(=O)O [Example T3, 3,5,3′-triiodo-L-thyronine, reference compound] | – | – | – | – | – | expression of cardiac α-MHC [5]: responsive; heart rate increase [6]: 30%
3 | [2H]c1c(C)c(Oc2cc(C(C([2H])([2H])[2H])C([2H])([2H])[2H])c(=O)[nH]n2)c(Cl)c([2H])c1-n1nc(C#N)c(=O)[nH]c1=O [Example 50, 2-(3-chloro-5-methyl-4-((6-oxo-5-(propan-2-yl-1,1,1,3,3,3-d6)-1,6-dihydropyridazin-3-yl)oxy)phenyl-2,6-d2)-3,5-dioxo-2,3,4,5-tetrahydro-1,2,4-triazine-6-carbonitrile] | 100 to 1000 | 51 | 1000 to 10000 | 36 | 13.5 | IC50 [7]: > 50000 nM; IC50 [8]: > 50000 nM; IC50 [9]: > 50000 nM; IC50 [10]: > 50000 nM; LDL-c [11]: significantly reduced; liver TC [11]: significantly reduced; plasma TC [11]: significantly reduced; compound concentration in heart ([12]; at end of study, high cholesterol diet mice): not detectable; blood and liver distribution ([12]; compound concentration at end of study, high cholesterol diet mice): similar; efficacy in reducing liver cholesterol compared with MGL-3196 ([12]; high cholesterol diet mice): as effective as MGL-3196; LDL-c [12, 15]: reduced; plasma TC [12, 15]: reduced; expression of DIO1 in liver ([12]; qPCR, mRNA of THRβ target gene, high cholesterol diet mice): dose-dependently upregulated; IC50 [13]: 41400 nM; IC50 [14]: 4190 nM

The next lines start with results.

Row | EC50 [2] [nM] | THRβ Bmax % (vs T3) [2] [%] | EC50 [3] [nM] | THRα Bmax % (vs T3) [3] [%] | selectivity ratio [4] | SMILES | also measured
4 | 100 to 1000 | 45 | 100 to 1000 | 23 | 4.85 | CC(C)c1cc(Oc2c(Cl)cc(-n3nc(C#N)c(=O)[nH]c3=O)cc2Cl)ncn1 [Example 48, 2-(3,5-dichloro-4-((6-isopropylpyrimidin-4-yl)oxy)phenyl)-3,5-dioxo-2,3,4,5-tetrahydro-1,2,4-triazine-6-carbonitrile] | –
5 | < 100 | 53 | 1000 to 10000 | 43 | 13.7 | Cc1cc(-n2nc(C#N)c(=O)[nH]c2=O)cc(Cl)c1Oc1n[nH]c(=O)c2c1CC[C@H]2C (single isomer, unassigned) [Example 57] | –
6 | 100 to 1000 | 80 | 1000 to 10000 | 88 | 11.9 | CC(C)n1c(=O)ccn(Cc2c(Cl)cc(-n3nc(C#N)c(=O)[nH]c3=O)cc2Cl)c1=O [Example 1, 2-(3,5-dichloro-4-((3-isopropyl-2,4-dioxo-3,4-dihydropyrimidin-1(2H)-yl)methyl)phenyl)-3,5-dioxo-2,3,4,5-tetrahydro-1,2,4-triazine-6-carbonitrile] | –
7 | 100 to 1000 | 23 | 100 to 1000 | 15 | 1 | [2H]C([2H])([2H])[C@H]1CCc2c(Oc3c(Cl)cc(-n4nc(C#N)c(=O)[nH]c4=O)cc3Cl)n[nH]c(=O)c21 [Example 52, (S)-2-(3,5-dichloro-4-((7-(methyl-d3)-1-oxo-2,5,6,7-tetrahydro-1H-cyclopenta[d]pyridazin-4-yl)oxy)phenyl)-3,5-dioxo-2,3,4,5-tetrahydro-1,2,4-triazine-6-carbonitrile] | –
